Among the data in PubChem BioAssay (NCI) are TGI values, retold here.

Holding throughout (experiment): NCI tumour cell line growth inhibition, 48 h
In test [1] the test system is P388 leukemia.
Test [2] deals with DLD-1 colon.
The subject of test [3] is XF 498 CNS.
Test [4] has as its system SN12K1 renal.
Test [5] concerns DMS 273 small cell lung.
Test [6] deals with DMS 114 small cell lung.
For test [7], the system named is SNB-78 CNS.
Test [8] has as its system KM20L2 colon.
Test [9] deals with M19-MEL melanoma.
For test [10], the system named is HOP-18 NSCLC.

The structures appear in SMILES notation.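 Method: 48-hour compound exposure of cells in 96-well plates, five concentrations, linear interpolation of endpoints. TGI: total growth inhibition.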

For the compound `O=C(Nc1ccc(C2=NCCN2)cc1)c1cncc(C(=O)Nc2ccc(C3=NCCN3)cc2)c1`, the TGI is 82.5 µM in test [1]; above 100 µM in [2]; above 100 µM in [3]; above 100 µM in test [4]; above 100 µM in test [5]; above 100 µM in test [6]. The TGI in test [7], in [8], in test [9] and in [10] was above 100 µM each time.
